In patent publication US20250367191A1, “TREATMENT OF MITOCHONDRIAL DISEASES WITH A CNS-PENETRANT SGC STIMULATOR ZAGOCIGUAT” (Tisento Therapeutics Inc., priority 2022, published 2025):

Tests used:
[1] = system: participants diagnosed with MELAS; assay: MELAS study: inflammatory biomarkers in plasma (InflammationMAP panel); assay type: in vivo, human
Experimental: Plasma and serum samples for biomarkers were collected from each participant. These biomarkers tested the target engagement of Compound I as well as the impact of the compound on disease. Plasma or serum samples were analyzed for concentrations of growth differentiation factor 15 (GDF-15), lactate, pyruvate, alanine, neurofilament light chain (NFL), vascular cell adhesion molecule 1, interleukin-1beta, asymmetric dimethylarginine (ADMA), L arginine, and other biomarkers relevant to the pathophysiology of mitochondrial disease, as well as their response to Compound I.
This change was observed across all brain regions of interest. Effect size throughout this disclosure is defined as the means change from baseline in a particular parameter that is being measured, divided by the standard deviation. Effect sizes closer to 1 or −1 (positive or negative dependent on the direction of movement for the specific parameter, i.e. +0.8 to +1.0 or −0.8 to −1.0) are usually considered large. Effect sizes between 0.5 and 0.8 or −0.5 and −0.8 (positive or negative dependent on the direction of movement for the specific parameter) are usually considered moderate. Effect sizes closer to below 0.5 or −0.5 (positive or negative dependent on the direction of movement for the specific parameter) are usually considered small.
26 out of the 40 (65%) inflammatory biomarkers assessed in plasma as part of the InflammationMAP® panel were reduced with effect sizes less or equal than −0.3. Only 3 of the 40 (7.5%) inflammatory biomarkers assessed in plasma increased with an effect size equal or more than 0.3. The changes in concentrations as well as the effect sizes for inflammatory markers measured in plasma are summarized in the 3 tables below (Table 1: large effect size; Table 2: moderate effect size and Table 3: small effect size). The concentration values in Tables 1-3 were measured in the standard units for each of these laboratory measures as known in the art. Many of these biomarkers tended to increase again back to baseline levels after treatment with Compound I was stopped, supporting a drug effect.

[2] = system: participants diagnosed with MELAS; assay: MELAS study: patient-reported outcomes (PGIC, MFIS, PROMIS); assay type: in vivo, human
Text: The Patient-reported Outcomes Measurement Information System (PROMIS) Item Bank v2.0—Cognitive Function is a self-administered questionnaire that assesses multiple aspects of mental fatigue and cognitive function in the past 7 days prior to the administration of the questionnaire. It uses a Likert-type rating scale (eg, “Never” to “Very often”).
The Patient Global Impression of Change (PGIC) is a single-item questionnaire that assesses the participant's perception of change in his/her overall health status since the start of the study using a Likert-type rating scale (eg, “Very much improved” to “Very much worse”).
The Modified Fatigue Impact Scale (MFIS) is a self-administered questionnaire that assesses the impact of fatigue in terms of physical, cognitive, and psychosocial functioning over the past 4 weeks. Patients respond using a Likert-type rating scale. (eg, “Never” to “Almost always”).

rats = details: cited from earlier work

Fc1ccccc1Cc1nc(-c2nc(C(F)(F)F)n[nH]2)cn2ccnc12 [Compound I, zagociguat]
Alpha-1-Antitrypsin, Effect size ([1]; 15 mg QD, day 29 vs baseline): −0.4
Alpha-1-Antitrypsin, change in concentration, Mean ([1]; 15 mg QD, day 29 vs baseline): −0.2
Alpha-2-Macroglobulin, Effect size ([1]; 15 mg QD, day 29 vs baseline): −0.3
Alpha-2-Macroglobulin, change in concentration, Mean ([1]; 15 mg QD, day 29 vs baseline): −0.2
Beta-2-Microglobulin, Effect size ([1]; 15 mg QD, day 29 vs baseline): −1.0
Beta-2-Microglobulin, change in concentration, Mean ([1]; 15 mg QD, day 29 vs baseline): −0.5
Brain-Derived Neurotrophic Factor, Effect size ([1]; 15 mg QD, day 29 vs baseline): −0.5
Brain-Derived Neurotrophic Factor, change in concentration, Mean ([1]; 15 mg QD, day 29 vs baseline): −2.1
C-Reactive Protein, Effect size ([1]; 15 mg QD, day 29 vs baseline): −0.6
C-Reactive Protein, change in concentration, Mean ([1]; 15 mg QD, day 29 vs baseline): −3.4
EN-RAGE, Effect size ([1]; 15 mg QD, day 29 vs baseline): −0.4
EN-RAGE, change in concentration, Mean ([1]; 15 mg QD, day 29 vs baseline): −28.4
Eotaxin-1, Effect size ([1]; 15 mg QD, day 29 vs baseline): −0.4
Eotaxin-1, change in concentration, Mean ([1]; 15 mg QD, day 29 vs baseline): −10.1
Factor VII, Effect size ([1]; 15 mg QD, day 29 vs baseline): −0.4
Factor VII, change in concentration, Mean ([1]; 15 mg QD, day 29 vs baseline): −87.4
Ferritin, Effect size ([1]; 15 mg QD, day 29 vs baseline): −0.6
Ferritin, change in concentration, Mean ([1]; 15 mg QD, day 29 vs baseline): −21.4
Fibrinogen, Effect size ([1]; 15 mg QD, day 29 vs baseline): −0.4
Fibrinogen, change in concentration, Mean ([1]; 15 mg QD, day 29 vs baseline): −1.4
Granulocyte-Macrophage Colony-Stimulating Factor, Effect size ([1]; 15 mg QD, day 29 vs baseline): −0.4
Granulocyte-Macrophage Colony-Stimulating Factor, change in concentration, Mean ([1]; 15 mg QD, day 29 vs baseline): −13.6
Immunoglobulin A, Effect size ([1]; 15 mg QD, day 29 vs baseline): −0.5
Immunoglobulin A, change in concentration, Mean ([1]; 15 mg QD, day 29 vs baseline): −0.4
Immunoglobulin M, Effect size ([1]; 15 mg QD, day 29 vs baseline): −0.6
Immunoglobulin M, change in concentration, Mean ([1]; 15 mg QD, day 29 vs baseline): −0.4
Intercellular Adhesion Molecule 1, Effect size ([1]; 15 mg QD, day 29 vs baseline): −0.3
Intercellular Adhesion Molecule 1, change in concentration, Mean ([1]; 15 mg QD, day 29 vs baseline): −12.1
Interleukin-10 (IL-10), Effect size ([1]; 15 mg QD, day 29 vs baseline): 0.4
Interleukin-10 (IL-10), change in concentration, Mean ([1]; 15 mg QD, day 29 vs baseline): 0.3
Interleukin-17 (IL-17), Effect size ([1]; 15 mg QD, day 29 vs baseline): 0.5
Interleukin-17 (IL-17), change in concentration, Mean ([1]; 15 mg QD, day 29 vs baseline): 0.03
Interleukin-18, Effect size ([1]; 15 mg QD, day 29 vs baseline): −0.4
Interleukin-18, change in concentration, Mean ([1]; 15 mg QD, day 29 vs baseline): −25.6
Matrix Metalloproteinase-9 (MMP-9), Effect size ([1]; 15 mg QD, day 29 vs baseline): 0.4
Matrix Metalloproteinase-9 (MMP-9), change in concentration, Mean ([1]; 15 mg QD, day 29 vs baseline): 37.3
Myoglobin, Effect size ([1]; 15 mg QD, day 29 vs baseline): −0.4
Myoglobin, change in concentration, Mean ([1]; 15 mg QD, day 29 vs baseline): −32.5
Plasminogen Activator Inhibitor 1, Effect size ([1]; 15 mg QD, day 29 vs baseline): −0.4
Plasminogen Activator Inhibitor 1, change in concentration, Mean ([1]; 15 mg QD, day 29 vs baseline): −11.6
Pulmonary and Activation-Regulated Chemokine, Effect size ([1]; 15 mg QD, day 29 vs baseline): −0.5
Pulmonary and Activation-Regulated Chemokine, change in concentration, Mean ([1]; 15 mg QD, day 29 vs baseline): −15.3
Serum Amyloid P-Component, Effect size ([1]; 15 mg QD, day 29 vs baseline): −0.9
Serum Amyloid P-Component, change in concentration, Mean ([1]; 15 mg QD, day 29 vs baseline): −5.0
T-Cell-Specific Protein RANTES, Effect size ([1]; 15 mg QD, day 29 vs baseline): −0.5
T-Cell-Specific Protein RANTES, change in concentration, Mean ([1]; 15 mg QD, day 29 vs baseline): −7.2
Thyroxine-Binding Globulin, Effect size ([1]; 15 mg QD, day 29 vs baseline): −0.7
Thyroxine-Binding Globulin, change in concentration, Mean ([1]; 15 mg QD, day 29 vs baseline): −8.4
Tumor necrosis factor receptor 2, Effect size ([1]; 15 mg QD, day 29 vs baseline): −0.7
Tumor necrosis factor receptor 2, change in concentration, Mean ([1]; 15 mg QD, day 29 vs baseline): −1.8
Vascular Cell Adhesion Molecule-1, Effect size ([1]; 15 mg QD, day 29 vs baseline): −0.6
Vascular Cell Adhesion Molecule-1, change in concentration, Mean ([1]; 15 mg QD, day 29 vs baseline): −98.3
Vascular Endothelial Growth Factor, Effect size ([1]; 15 mg QD, day 29 vs baseline): −0.3
Vascular Endothelial Growth Factor, change in concentration, Mean ([1]; 15 mg QD, day 29 vs baseline): −7.0
Vitamin D-Binding Protein, Effect size ([1]; 15 mg QD, day 29 vs baseline): −0.5
Vitamin D-Binding Protein, change in concentration, Mean ([1]; 15 mg QD, day 29 vs baseline): −26.5
von Willebrand Factor, Effect size ([1]; 15 mg QD, day 29 vs baseline): −0.4
von Willebrand Factor, change in concentration, Mean ([1]; 15 mg QD, day 29 vs baseline): −123.4
inflammatory biomarkers increased with an effect size equal or more than 0.3 (3 of the 40) ([1]; 40 biomarkers assessed): 7.5%
inflammatory biomarkers reduced with effect sizes less or equal than −0.3 (26 out of the 40) ([1]; 40 biomarkers assessed): 65%
participants reporting improvement in their disease (PGIC) ([2]; 8 participants): Three of the 8
participants reporting no change in their disease (PGIC) ([2]; 8 participants): 4
participants reporting their disease as much worse (PGIC) ([2]; 8 participants): 1
changes in MFIS and PROMIS at the study level ([2]; Day 29): not observed
brain metabolite NAA+NAAG deficits (rats; chronic dosing): reversed
dendritic spine density (rats; chronic dosing): improved dendritic spine density
hippocampal long term potentiation (LTP) (rats; chronic dosing): restored
behavioral task performance (rats; pharmacologically impaired rats): improved behavioral task performance
neurotrophic factors pCREB and BDNF (rats; rat, in vivo): increased neurotrophic factors
